In paper PMC6510909 (Investigational New Drugs, 2018):
Where two headings read alike, the source gives them in different places.

Key:
[1] = test system: patients with previously untreated metastatic PDAC; details: for Overall safety and tolerability: in combination with nab-P + G, up to 200 mg twice daily
Text: Patients were ≥ 18 years of age with previously untreated metastatic PDAC (measurable per Response Evaluation Criteria in Solid Tumors [RECIST] v 1.1); and an Eastern Cooperative Oncology Group (ECOG) performance status ≤1 and adequate hematologic, renal, and hepatic function. […] All patients provided written informed consent prior to enrollment.
Screening occurred within 21 days before the first MMB dose and included medical history and prior/concomitant medication review, physical exam and assessments of vital signs, ECOG performance status, pregnancy test (females), laboratory assessment, adverse event (AE) assessment, and staging CT or MRI. MMB was given orally once or twice daily as per the assigned dosing cohort: Cohort 1–100 mg MMB once daily; Cohort 2–150 mg MMB once daily; Cohort 3–200 mg MMB once daily; Cohort 4–150 mg MMB twice daily; and Cohort 5–200 mg MMB twice daily. […] Each dose cohort consisted of 3 patients, unless a dose-limiting toxicity (DLT) was experienced during the first 28 days of treatment. If one DLT was experienced, 3 additional patients were enrolled in the dose cohort. If a second DLT was experienced in the same cohort, MTD was considered to be exceeded. Dose escalation continued from Dose Level 2 to 3 to 4 to 5 if no DLT occurred in 3 evaluable subjects or < 2 DLTs occurred in 6 evaluable patients within each dose level.
Primary endpoint was incidence of DLT(s) based on the Common Terminology Criteria for Adverse Events (CTCAE) version 4.03. Secondary endpoints were overall survival (OS) (defined as the time interval from the first dose of MMB to death from any cause; patients lost to follow-up or who survived until the end of study were censored at the last date that they were known to be alive), progression-free survival (PFS) (defined as the time interval from the first dose of MMB to the earlier of the first documentation of definitive disease progression or death from any cause), overall response rate (ORR) (proportion of patients who achieved a complete or partial response [CR or PR, respectively] during MMB therapy), and duration of response (time from CR or PR to definitive disease progression or death from any cause).
Planned enrollment was up to 30 patients based on the standard 3 + 3 design. The efficacy analyses were conducted in all enrolled patients. Safety analyses were conducted in all enrolled patients who received ≥1 dose of study treatment. Descriptive summary statistics were provided for patient characteristics and safety variables. Kaplan-Meier estimates were used for OS, PFS, duration of response, and their 95% confidence intervals (CIs). The ORR was summarized for each dose level cohort with corresponding 2-sided 95% exact CIs based on the Clopper-Pearson method.

[2] = Plasma pharmacokinetics on Cycle 1 Day 15, noncompartmental; assay type: in vivo, human; details: for Cmax / half-life / Tmax / AUC: human, plasma, oral
Procedure: Blood samples were collected from patients prior to the MMB dose and at specified time points up to 24 h post-dose on Cycle 1 Day 15. Pharmacokinetic (PK) parameters were estimated using Phoenix WinNonlin® software (Certara USA, Inc., Princeton, NJ) using standard noncompartmental methods.

TBK1 = TBK1 inhibition estimated from plasma Cmax; design: species or system human
[3] = all cohorts, MMB + nab-P + G, n = 25
[4] = all cohorts, MMB + nab-P + G, AE consistent with JAK1/2 inhibition

N#CCNC(=O)c1ccc(-c2ccnc(Nc3ccc(N4CCOCC4)cc3)n2)cc1 [MMB, momelotinib]
Dose-limiting toxicity (Grade 3 diarrhea), patients ([1]; 100 mg MMB once daily + nab-P + G): 1 patient | Dose-limiting toxicity (Grade 3 diarrhea), patients ([1]; 200 mg MMB once daily + nab-P + G): 1 patient | Maximum tolerated dose (MTD) ([1]; MMB up to 200 mg twice daily + nab-P + G): not reached | Deaths due to TEAEs [1, 3]: no deaths | Grade 3 MMB-related AE deep vein thrombosis [1, 3]: 4.0% | Grade 3 MMB-related AE dehydration [1, 3]: 4.0% | Grade 3 MMB-related AE diarrhea [1, 3]: 12.0% | Grade 3 MMB-related AE fatigue [1, 3]: 4.0% | Grade 3 MMB-related AE febrile neutropenia [1, 3]: 4.0% | Grade 3 MMB-related AE generalized edema [1, 3]: 4.0% | Grade 3 MMB-related AE hypertension [1, 3]: 4.0% | Grade 3 MMB-related AE malaise [1, 3]: 4.0% | Grade 3 MMB-related AE nephrolithiasis [1, 3]: 4.0% | Grade 3 MMB-related AE peripheral edema [1, 3]: 4.0% | Grade 3 MMB-related AE peripheral sensory motor neuropathy [1, 3]: 8.0% | Grade 3 MMB-related AE polyneuropathy [1, 3]: 4.0% | Grade 3 MMB-related AE respiratory distress [1, 3]: 4.0% | Grade 3 MMB-related AE thrombocytopenia [1, 3]: 8.0% | Grade 3 MMB-related AE tremor [1, 3]: 4.0% | Grade 3 or 4 AEs considered related to MMB [1, 3]: 44% | Grade 3 or 4 TEAEs, patients [1, 3]: 88% | Grade 3 or 4 neutropenia, patients [1, 3]: 32% | Grade 4 MMB-related event embolic stroke [1, 3]: 4.0% | Grade 4 MMB-related event increased blood uric acid [1, 3]: 4.0% | Grade 4 MMB-related event neutropenia [1, 3]: 4.0% | Neutropenia Grade 3, patients [1, 3]: 16% | Neutropenia Grade 4, patients [1, 3]: 16% | Patients with at least one treatment-emergent AE (TEAE) [1, 3]: All patients | Peripheral neuropathy attributed by investigators as related to the drug, patients [1, 3]: 16% | Peripheral neuropathy leading to discontinuation of MMB, patients [1, 3]: 8% | Peripheral sensory neuropathy attributed by investigators as related to the drug, patients [1, 3]: 24% | Pneumonia Grade 3, patients [1, 3]: 24% | SAEs considered related to MMB, patients [1, 3]: 24% | Serious AEs (SAEs), patients [1, 3]: 72% | TEAE abdominal pain, patients [1, 3]: 44% | TEAE alopecia, patients [1, 3]: 40% | TEAE anemia, patients [1, 3]: 68% | TEAE constipation, patients [1, 3]: 52% | TEAE decreased appetite, patients [1, 3]: 40% | TEAE diarrhea, patients [1, 3]: 64% | TEAE dysgeusia, patients [1, 3]: 40% | TEAE fatigue, patients [1, 3]: 80% | TEAE hypertension, patients [1, 3]: 36% | TEAE nausea, patients [1, 3]: 76% | TEAE peripheral edema, patients [1, 3]: 48% | TEAE peripheral neuropathy, patients [1, 3]: 36% | TEAE peripheral sensory neuropathy, patients [1, 3]: 36% | TEAE pyrexia, patients [1, 3]: 56% | TEAE vomiting, patients [1, 3]: 52% | Peripheral neuropathy, predefined AE of interest, patients ([1]; all cohorts, MMB + nab-P + G, n = 25, higher incidence at the two highest dose levels): 60% | AE neutropenia, patients [1, 4]: 32% | AE thrombocytopenia, patients [1, 4]: 20% | Overall safety and tolerability [1]: safe and well tolerated | Overall safety and tolerability ([1]; listed as Momelotinib): well tolerated | Maximum administered dose (MAD) ([1]; twice daily, + nab-P + G): 200 mg | Increases in exposure with dose ([2]; 100-200 mg MMB): less than dose-proportional | AUCtau, 200 mg once-daily compared with 100 mg once-daily ([2]; Cycle 1 Day 15): less than 2 fold | Cmax, 200 mg once-daily compared with 100 mg once-daily ([2]; Cycle 1 Day 15): less than 2 fold | Cmax ([2]; 100 mg, 100 mg MMB QD n = 6, steady state, mean (% coefficient of variation), read-out: Cmax): 258 ng/mL | half-life ([2]; 100 mg, 100 mg MMB QD n = 6, steady state, median (first quarter, third quarter), read-out: T 1/2 (converted)): 5.4 h | Tmax ([2]; 100 mg, 100 mg MMB QD n = 6, steady state, median (first quarter, third quarter), read-out: Tmax): 4.5 h | AUC ([2]; 100 mg, 100 mg MMB QD n = 6, steady state, mean (% coefficient of variation)): 2000 ng·h/mL | AUC ([2]; 150 mg, 150 mg MMB BID n = 1, steady state): 1520 ng·h/mL | Cmax ([2]; 150 mg, 150 mg MMB BID n = 1, steady state, read-out: Cmax): 215 ng/mL | half-life ([2]; 150 mg, 150 mg MMB BID n = 1, steady state, read-out: T 1/2 (converted)): 5 h | Tmax ([2]; 150 mg, 150 mg MMB BID n = 1, steady state, read-out: Tmax): 3 h | Cmax ([2]; 150 mg, 150 mg MMB QD n = 3, steady state, mean (% coefficient of variation), read-out: Cmax): 200 ng/mL | half-life ([2]; 150 mg, 150 mg MMB QD n = 3, steady state, median (first quarter, third quarter), read-out: T 1/2 (converted)): 6.6 h | Tmax ([2]; 150 mg, 150 mg MMB QD n = 3, steady state, median (first quarter, third quarter), read-out: Tmax): 3.2 h | AUC ([2]; 150 mg, 150 mg MMB QD n = 3, steady state, mean (% coefficient of variation)): 1680 ng·h/mL | Cmax ([2]; 200 mg, 200 mg MMB BID n = 3, steady state, mean (% coefficient of variation), read-out: Cmax): 330 ng/mL | half-life ([2]; 200 mg, 200 mg MMB BID n = 3, steady state, median (first quarter, third quarter), read-out: T 1/2 (converted)): 5.5 h | Tmax ([2]; 200 mg, 200 mg MMB BID n = 3, steady state, median (first quarter, third quarter), read-out: Tmax): 3 h | AUC ([2]; 200 mg, 200 mg MMB BID n = 3, steady state, mean (% coefficient of variation)): 1980 ng·h/mL | Cmax ([2]; 200 mg, 200 mg MMB QD n = 6, steady state, mean (% coefficient of variation), read-out: Cmax): 364 ng/mL | half-life ([2]; 200 mg, 200 mg MMB QD n = 6, steady state, median (first quarter, third quarter), read-out: T 1/2 (converted)): 5.3 h | Tmax ([2]; 200 mg, 200 mg MMB QD n = 6, steady state, median (first quarter, third quarter), read-out: Tmax): 3.5 h | AUC ([2]; 200 mg, 200 mg MMB QD n = 6, steady state, mean (% coefficient of variation)): 3340 ng·h/mL | half-life ([2]; Cycle 1 Day 15, across dose levels, approximately, read-out: Median terminal half-life): 5 to 6.6 h | Tmax ([2]; Cycle 1 Day 15, across dose levels, approximately, read-out: Time to peak plasma concentration after the first dose of MMB): 3 to 4.5 h | Cmax ([2]; across dose levels, approximately, read-out: Maximum plasma concentration (Cmax), overall): ~300 ng/mL | Cmax ([2]; converted from approximately 300 ng/mL, read-out: Maximum plasma concentration (Cmax), overall): 720 nM | Estimated transient maximal TBK1 inhibition (TBK1; based on the Cmax of approximately 300 ng/mL): EC70 | MMB concentrations relative to TBK1 inhibition (TBK1; pharmacokinetic analyses): too low
